The source of these data is patent publication US11872324B2, “Materials and methods for tissue regeneration” (The University Court of the University of Glasgow, priority 2015, dated 2024).

Assay [1] has as its system Murine embryonic mesenchymal stem cells (mMSCs) C3H10T1/2. As to the kind of experiment: Inhibition of contractility in mMSCs. In kind it is cell-based. The settings on record: for osteogenic marker expression: mMSCs on all substrates, 20 μM inhibitor; for Staining for pMLC / expression of stemness markers (Sca1, CD29): mMSCs; for Staining for pMLC: 10 and 20 μM inhibitor; for expression of stemness markers (Sca1, CD29): 15 days, basal conditions with inhibitor.

A further assay concerns ERK1/2. As to the kind of experiment: ERK1/2 phosphorylation ELISA in HUVEC. In kind it is cell-based, human. The settings on record: 30 min. On the procedure:
VEGF bound to substrates was assayed indirectly by measuring remaining VEGF in coating solution with a sandwich ELISA kit according to the manufacturer's instructions (DuoSetDY293B, R&D Systems). Levels of phosphorylation of ERK1/2 in HUVECs seeded onto functionalized surfaces were assessed after 30 min incubation using DuoSet ELISA kit following the manufacturer's instructions (DuoSetDYC1018B, R&D Systems). Human umbilical vein endothelial cells (HUVEC) (Cellworks) were maintained in HLVEC complete media (Cellworks). For any experiment, cells with not higher than 10 population doublings were used (usually corresponding up to P5). For network formation experiments, cell seeding density was optimized, and cells were eventually seeded at 10,000 cells/cm^2. Seeding was done on protein-functionalized and control polymer-coated substrates, and cells were left to adhere in a CO2 incubator at 37° C. After 16 h, medium was removed and replaced with fibrinogen solution (20 mg/ml) in HLVEC complete media, containing also 50 U/ml of thrombin and 1.2 mg/ml of aprotinin; to allow complete fibrinogen clotting, samples were placed in CO2 incubator for 1 h. After clotting, fibrin matrix was covered with 0.5 ml HLVEC complete media with 25 ng/ml of VEGF where required, and samples were kept at 37° C. for 6 day period, with media changed every second day.
(In an ELISA, binding on a coated surface is turned into a signal by an enzyme label.)

A further assay concerns the target VEGFR-2 (Homo sapiens, UniProt P35968). On the procedure: The most direct way to look at VEGF effect on downstream signaling was to assess its receptor phosphorylation. An immunofluorescence test for presence of phosphorylated VEGFR-2 was performed on standard HUVEC culture on tissue plastics, when cells were stimulated with 25 ng/ml of VEGF for two different time periods (2 min and 30 min). […] Therefore it was decided to assay phosphorylation of one of the downstream effectors, ERK1/2 which is activated via MAPK branch of GF receptor signaling.

For assay [2], the system named is Human bone marrow mesenchymal stem cells (hMSCs). As to the kind of experiment: Alkaline phosphatase staining of hMSCs. In kind it is cell-based. The settings on record: 28 days, noggin 50 ng/ml.
Method: Human bone marrow mesenchymal stem cells (hMSCs) from Promocell were maintained in basal media (αMEM, 10% FBS, 1% P/S, 1% fungizone, 2 mM L-glutamine, 1 ng/ml FGF-2) at 37° C. with 5% CO2. Cells were seeded onto the materials at 10^4 cells/cm2 using seeding media (DMEM high glucose, 1% P/S, 1% FBS,) and media were changed twice a week. For all cultures the first 2 hours (initial cell adhesion) were in absence of serum and GF. Cells were used at passages P0-P3. Each experiment was performed in triplicate.
Cells were cultured on materials for 28 days. Noggin (50 ng/ml) was added in a set of samples and phosphate deposition was analysed by an Alkaline Phosphatase assay (Sigma, 86C-1KT). Cells were fixed with the fixative solution (citrate-acetone-formaldehide solution) at RT for 30 s. Afterwards, samples were stained with the alkaline-dye mixture and incubated at RT in darkness for 15 min. Samples were counterstained for 2 minutes with neutral red solution and rinsed in tap water.
The target in assay [3] is Fibronectin (FN) from human plasma adsorbed on poly(ethyl acrylate) (PEA), organised into a fibrillar (nano)network (human) (UniProt P02751). As to the kind of experiment: ELISA; BMP-2 adsorbed on FN-coated polymer implant tubes.
Assay [4] has the same target. As to the kind of experiment: sandwich ELISA of BMP-2 released from FN-coated surfaces.
Assay [5] shares this target. As to the kind of experiment: ELISA; BMP-2 adsorbed from 5 µg/ml on FN-coated polymer implant tubes.

Sequence of VEGFR-2 (P35968 20-1356): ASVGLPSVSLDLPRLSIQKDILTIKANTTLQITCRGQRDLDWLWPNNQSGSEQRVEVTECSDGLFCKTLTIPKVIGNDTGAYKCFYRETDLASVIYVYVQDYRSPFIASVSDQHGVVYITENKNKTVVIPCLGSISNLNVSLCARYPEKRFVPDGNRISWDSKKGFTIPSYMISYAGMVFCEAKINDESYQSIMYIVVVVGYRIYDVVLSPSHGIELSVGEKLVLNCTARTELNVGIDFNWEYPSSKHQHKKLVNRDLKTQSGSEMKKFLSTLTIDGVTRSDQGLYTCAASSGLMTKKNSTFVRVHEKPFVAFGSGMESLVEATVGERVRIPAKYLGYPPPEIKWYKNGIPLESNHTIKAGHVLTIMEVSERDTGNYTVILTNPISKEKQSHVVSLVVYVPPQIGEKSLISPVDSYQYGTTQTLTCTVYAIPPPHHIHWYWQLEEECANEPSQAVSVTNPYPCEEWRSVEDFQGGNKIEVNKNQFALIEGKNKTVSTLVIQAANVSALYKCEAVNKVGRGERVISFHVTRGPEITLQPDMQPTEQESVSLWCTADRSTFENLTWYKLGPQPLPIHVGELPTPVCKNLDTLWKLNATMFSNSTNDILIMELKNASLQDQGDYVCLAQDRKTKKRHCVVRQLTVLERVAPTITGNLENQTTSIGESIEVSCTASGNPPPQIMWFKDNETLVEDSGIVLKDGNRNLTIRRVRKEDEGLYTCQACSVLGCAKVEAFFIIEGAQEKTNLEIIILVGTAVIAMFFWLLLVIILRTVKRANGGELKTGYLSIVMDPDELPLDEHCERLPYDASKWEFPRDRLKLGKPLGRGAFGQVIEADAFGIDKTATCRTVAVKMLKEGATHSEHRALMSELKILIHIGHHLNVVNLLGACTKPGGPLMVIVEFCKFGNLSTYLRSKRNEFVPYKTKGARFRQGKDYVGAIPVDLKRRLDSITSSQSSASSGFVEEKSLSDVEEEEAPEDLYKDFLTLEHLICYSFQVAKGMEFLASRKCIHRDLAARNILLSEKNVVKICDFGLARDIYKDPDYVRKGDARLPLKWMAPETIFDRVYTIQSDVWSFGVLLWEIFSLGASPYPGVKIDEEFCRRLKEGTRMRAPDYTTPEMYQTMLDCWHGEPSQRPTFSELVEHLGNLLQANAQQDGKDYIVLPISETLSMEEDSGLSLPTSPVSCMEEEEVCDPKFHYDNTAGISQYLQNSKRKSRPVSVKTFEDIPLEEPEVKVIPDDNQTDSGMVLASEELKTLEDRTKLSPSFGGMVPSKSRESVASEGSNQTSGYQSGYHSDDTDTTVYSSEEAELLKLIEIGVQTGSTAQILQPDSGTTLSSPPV

On to `C[C@@H](N)[C@H]1CC[C@H](C(=O)Nc2ccncc2)CC1` [Y-27632], for which, in assay [1], the osteogenic marker expression entry is listed as “greatly reduced”; the “Staining for pMLC” value is recorded as “reduced in a dose-dependent manner”; the “expression of stemness markers (Sca1, CD29)” value is on record as “strongly reduced”.
The matching figures for `Cc1ccc2c(c1)C(=O)C1(O)CCN(c3ccccc3)C1=N2` (centres unmarked) [blebbistatin]: “greatly reduced”, “reduced in a dose-dependent manner” and “strongly reduced”.
Turning to VEGF, in the assay on ERK1/2 (PEA samples vs PEA sample without VEGF), the “ERK1/2 phosphorylation, VEGF present in the medium” value is reported as “did not show any difference”. Further, the “ERK1/2 phosphorylation, VEGF coated on PEA” value in the assay on ERK1/2 (vs PEA without bound VEGF) was “higher level”. For the same molecule, at VEGFR-2, the “phosphorylated VEGFR-2 after 2 min” value is recorded as “present” and the “phosphorylated VEGFR-2 after 30 min” value was “no phosphorylation was detected”.

B1: noggin: used as BMP-2 inhibitor to prevent activity (50 ng/ml) (protein)
chain: QHYLHIRPAPSDNLPLVDLIEHPDPIFDPKEKDLNETLLRSLLGGHYDPGFMATSPPEDRPGGGGGAAGGAEDLAELDQLLRQRPSGAMPSEIKGLEFSEGLAQGKKQRLSKKLRRKLQMWLWSQTFCPVLYAWNDLGSRFWPRYVKVGSCFSKRSCSVPEGMVCKPSKSVHLTVLRWRCQRRGGQRCGWIPIQYPIISECKCSC
B1: the “PEA driven FN/BMP-2 osteogenic differentiation (ALP)” value in assay [2] is reported as “reduced”.

B2: BMP-2 (R&D Systems, 355-BM or 355-BM/CF) (ligand, UniProt P12643 283-396, looked up)
chain: QAKHKQRKRLKSSCKRHPLYVDFSDVGWNDWIVAPPGYHAFYCHGECPFPLADHLNSTNHAIVQTLVNSVNSKIPKACCVPTELSAISMLYLDENEKVVLKNYQDMVVEGCGCR
Take B2: in assay [3], the amount of BMP-2 on the coated tube is 15 ng. Besides, in assay [4], the BMP-2 released after 14 days is under 10%. This molecule registered a surface density in assay [5] of 100 ng/cm^2.
